Among the test systems are TK-10 renal; NCI-H460 lung; DLD-1 colon; IGROV1 ovarian; SR leukemia; RPMI-8226 leukemia; NCI-H23 lung; DU-145 prostate; HS 578T breast.
Common to all, as to experiment: inhibition of tumour cell growth, NCI panel, 48 h

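Values below derive from 48-hour exposures of cells grown in 96-well plates, with endpoints linearly interpolated between the two concentrations bracketing the appropriate inhibition level. At the GI50, growth is halved. Definition used: TGI = concentration required for complete inhibition of growth.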 A value given as a limit tells only on which side of the number the result lay.

For the molecule `COc1cc(C2c3cc4c(cc3[C@H](NC(=O)c3cccs3)C3COC(=O)[C@H]23)OCO4)cc(OC)c1OC` (stereo partly drawn), the TGI in the assay with TK-10 renal is > 100 µM; with NCI-H460 lung it was 10.8 µM; in the assay on DLD-1 colon, 36.8 µM; in the assay on IGROV1 ovarian it was > 100 µM; with SR leukemia it was 17.7 µM; in the assay with RPMI-8226 leukemia it was 19.3 µM.

For `COc1ccc2nc3cc(Cl)ccc3c(NCCC(=O)OCC(O)C(O)C(O[C@H](C)C(=O)NC(C)C(=O)NC(CCC(N)=O)C(=O)OCc3ccccc3)C(C=O)NC(C)=O)c2c1` (stereo partly drawn), the TGI came out at 46.2 µM with TK-10 renal; 30.4 µM in the assay with NCI-H460 lung; 33.6 µM with DLD-1 colon; 27.5 µM in the assay on NCI-H23 lung; 30.2 µM in the assay with IGROV1 ovarian; 23.6 µM with SR leukemia.

For `Cc1cc(C)nc(NS(=O)(=O)c2ccc(NC(=O)c3cccc4c(Nc5ccc(S(=O)(=O)Nc6nc(C)cc(C)n6)cc5)c5ccccc5nc34)cc2)n1`, the TGI with TK-10 renal was 73.3 µM; in the assay on NCI-H460 lung it was > 100 µM; in the assay with DLD-1 colon it was 54.2 µM; in the assay with NCI-H23 lung it was 57.3 µM; in the assay with IGROV1 ovarian, > 100 µM; with RPMI-8226 leukemia, 61.8 µM.

In the case of `COC(=O)CSc1ccccc1`, the TGI in the assay on TK-10 renal, in the assay on NCI-H460 lung, in the assay on DLD-1 colon, in the assay on NCI-H23 lung, in the assay with IGROV1 ovarian and in the assay on RPMI-8226 leukemia was > 100 µM in each case.

Regarding `CCOCCc1c(O)nc(SC)[nH]c1=O`, the GI50 in the assay with TK-10 renal, in the assay on DU-145 prostate, in the assay with HS 578T breast, with NCI-H460 lung, in the assay with NCI-H23 lung and with IGROV1 ovarian was > 100 µM each time. Also, the GI50 with SR leukemia and with RPMI-8226 leukemia was > 100 µM throughout. Also, the TGI in the assay with TK-10 renal, in the assay with DU-145 prostate, with HS 578T breast, in the assay with NCI-H460 lung, in the assay with NCI-H23 lung and in the assay with IGROV1 ovarian was > 100 µM each time. Further, the TGI in the assay on SR leukemia and in the assay with RPMI-8226 leukemia was > 100 µM each time.

For `CC1(C)Cc2cccc(OCC(O)CN3CCN(c4ccc(F)cc4)CC3)c2O1` (stereo not drawn), the GI50 in the assay on TK-10 renal is > 50 µM; with DU-145 prostate, 24.1 µM; with HS 578T breast it was 10.4 µM; with NCI-H460 lung, 15.3 µM; in the assay on NCI-H23 lung, 19.1 µM; with IGROV1 ovarian, 20 µM. The figures for the GI50 in the assay on SR leukemia and with RPMI-8226 leukemia were 13.4 µM and 9.18 µM, respectively. For the same molecule, the TGI with TK-10 renal was > 50 µM; in the assay with DU-145 prostate, > 50 µM; in the assay on HS 578T breast, 31.3 µM; in the assay with NCI-H460 lung, > 50 µM; in the assay on NCI-H23 lung, > 50 µM; in the assay with IGROV1 ovarian it was > 50 µM. The TGI was > 50 µM with SR leukemia and 26.2 µM in the assay on RPMI-8226 leukemia.

Consider `O=C(/C=C/C=C/c1ccccc1)c1ccc(Nc2nc(Nc3ccccc3)nc(Nc3ccccc3)n2)cc1`, for which the GI50 with TK-10 renal is > 100 µM; in the assay with DU-145 prostate, 43.6 µM; in the assay with HS 578T breast, 29 µM; with NCI-H460 lung, 42.8 µM; in the assay with NCI-H23 lung, > 100 µM; in the assay with IGROV1 ovarian it was 0.627 µM. Further, the GI50 in the assay with SR leukemia is 9.45 µM; in the assay on RPMI-8226 leukemia it was 4.12 µM. The TGI in the assay on TK-10 renal, in the assay with DU-145 prostate, in the assay on HS 578T breast, in the assay with NCI-H460 lung, with NCI-H23 lung and in the assay on IGROV1 ovarian was > 100 µM throughout. Besides, the results for the TGI with SR leukemia and with RPMI-8226 leukemia were 92.9 µM and > 100 µM, respectively.

Turning to `C(=N/Nc1ncnc2nc[nH]c12)/c1ccccn1`, the GI50 with TK-10 renal was 0.452 µM; in the assay with DU-145 prostate, 0.596 µM; in the assay with HS 578T breast, 12.7 µM; in the assay with NCI-H460 lung, 3.29 µM; with NCI-H23 lung, 2.91 µM; in the assay on IGROV1 ovarian, 2.11 µM. Also, the figures for the GI50 with SR leukemia and in the assay with RPMI-8226 leukemia were 0.4 µM and 3.9 µM, respectively. The TGI in the assay with TK-10 renal is > 100 µM; in the assay with DU-145 prostate, > 49.3 µM; in the assay with HS 578T breast, > 100 µM; with NCI-H460 lung, > 50.8 µM; with NCI-H23 lung, > 100 µM; in the assay on IGROV1 ovarian, 20.9 µM. Moreover, the TGI in the assay on SR leukemia and with RPMI-8226 leukemia was > 100 µM throughout.

As to `CCOC(=O)c1c[nH]c2c(OCc3ccccc3)c3ccccc3c(O)c2c1=O`, the GI50 was 16 µM in the assay on TK-10 renal; 12.1 µM with DU-145 prostate; 13.5 µM with HS 578T breast; 4.29 µM in the assay on NCI-H460 lung; 6.75 µM in the assay on NCI-H23 lung; 34.4 µM in the assay on IGROV1 ovarian. For the same molecule, the GI50 in the assay on SR leukemia is 21.3 µM; in the assay on RPMI-8226 leukemia, 26.9 µM. Further, the TGI is 45.5 µM in the assay on TK-10 renal; > 74.2 µM in the assay with DU-145 prostate; 48 µM with HS 578T breast; > 47.5 µM in the assay on NCI-H460 lung; 28.6 µM in the assay with NCI-H23 lung; > 100 µM in the assay with IGROV1 ovarian. Also, the TGI in the assay with SR leukemia and in the assay on RPMI-8226 leukemia was > 100 µM in each case.

For the molecule `CSC(=S)N/N=C/c1ccccc1`, the TGI in the assay with TK-10 renal, with DU-145 prostate, in the assay with HS 578T breast, in the assay on NCI-H460 lung, in the assay on NCI-H23 lung and in the assay with IGROV1 ovarian was > 100 µM in each case. In addition, the TGI in the assay with SR leukemia and in the assay on RPMI-8226 leukemia was > 100 µM each time.

For the molecule `CCOC(=O)c1ccc2c(c1)[n+](=O)c(C(=O)c1ccc3ccccc3c1)c(C(F)(F)F)n2[O-]`, the GI50 is 1.89 µM in the assay with TK-10 renal; 1.78 µM in the assay with DU-145 prostate; 1.57 µM in the assay with HS 578T breast; 1.69 µM in the assay on NCI-H460 lung; 0.496 µM in the assay on NCI-H23 lung; 0.361 µM with IGROV1 ovarian. Also, the results for the GI50 in the assay on SR leukemia and in the assay on RPMI-8226 leukemia were 0.331 µM and 1.1 µM, respectively. In addition, the TGI turned out to be 3.3 µM in the assay with TK-10 renal; 3.16 µM in the assay with DU-145 prostate; 3.62 µM with HS 578T breast; 3.2 µM in the assay on NCI-H460 lung; 1.79 µM in the assay on NCI-H23 lung; 1.21 µM in the assay on IGROV1 ovarian. The values for the TGI with SR leukemia and in the assay on RPMI-8226 leukemia were 1.6 µM and 3.63 µM, respectively.

For the origin of these results see PubChem BioAssay (NCI).
